Laboratory results from patent US7417156B2, “Orally active, antimalarial, anticancer, artemisinin-derived trioxane dimers” (Johns Hopkins University, priority 2002, dated 2008).

Tests used:
SF-268 = assay: NCI 60 cell line panel screen (SRB); type: cell-based, human; details: for Log10GI50: CNS Cancer, SF-268; for Log10LC50 / Log10TGI50: SF-268 (CNS Cancer); for Log10LC50: LC50: PG=−50; for Log10TGI50: TGI: PG=0
M14 = assay: NCI 60 cell line panel screen (SRB); type: cell-based, human; details: for Log10LC50: M14 (Melanoma), LC50: PG=−50; for Log10TGI50: M-14 (Melanoma), TGI: PG=0; for Log10GI50: Melanoma, M14
MDA-MB-435 = assay: NCI 60 cell line panel screen (SRB); type: cell-based, human; details: for Log10GI50: Breast Cancer, MDA-MB-435; for Log10LC50 / Log10TGI50: MDA-MB-435 (Breast Cancer); for Log10LC50: LC50: PG=−50; for Log10TGI50: TGI: PG=0
HS 578T = assay: NCI 60 cell line panel screen (SRB); type: cell-based, human; details: for Log10GI50: Breast Cancer, HS 578T; for Log10LC50 / Log10TGI50: HS 578T (Breast Cancer); for Log10LC50: LC50: PG=−50; for Log10TGI50: TGI: PG=0
A549/ATCC = assay: NCI 60 cell line panel screen (SRB); type: cell-based, human; details: for Log10LC50 / Log10TGI50: A549/ATCC (Non-Small Cell Lung Cancer); for Log10LC50: LC50: PG=−50; for Log10TGI50: TGI: PG=0; for Log10GI50: Non-Small Cell Lung Cancer, A549/ATCC
KM12 = assay: NCI 60 cell line panel screen (SRB); type: cell-based, human; details: for Log10GI50: Colon Cancer, KM12; for Log10LC50 / Log10TGI50: KM12 (Colon Cancer); for Log10LC50: LC50: PG=−50; for Log10TGI50: TGI: PG=0
NCI-H522 = assay: NCI 60 cell line panel screen (SRB); type: cell-based, human; details: for Log10TGI50: NCI-H522 (Non-Small Cell Lung Cancer), TGI: PG=0; for Log10LC50: NCI-H-522 (Non-Small Cell Lung Cancer), LC50: PG=−50; for Log10GI50: Non-Small Cell Lung Cancer, NCI-H522
UO-31 = assay: NCI 60 cell line panel screen (SRB); type: cell-based, human; details: for Log10GI50: Renal Cancer, UO-31; for Log10LC50 / Log10TGI50: UO-31 (Renal Cancer); for Log10LC50: LC50: PG=−50; for Log10TGI50: TGI: PG=0
COLO 205 = assay: NCI 60 cell line panel screen (SRB); type: cell-based, human; details: for Log10LC50 / Log10TGI50: COLO 205 (Colon Cancer); for Log10LC50: LC50: PG=−50; for Log10TGI50: TGI: PG=0; for Log10GI50: Colon Cancer, COLO 205
MOLT-4 = details: for Log10GI50: Leukemia, MOLT-4; for Log10LC50 / Log10TGI50: MOLT-4 (Leukemia); for Log10LC50: LC50: PG=−50; for Log10TGI50: TGI: PG=0
Method in brief: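 Sulforhodamine B staining of TCA-fixed cellular protein was the read-out, following 48 h compound exposure at 37 °C. Plates were pre-incubated 24 h before dosing, and five concentrations (routinely 10^−4 to 10^−8 molar) were tested in duplicate with time-zero and untreated controls. Values derive from test/control percentage growth relative to time-zero mass.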

CCRF-CEM = assay: NCI 60 cell line panel screen (SRB); type: cell-based, human; details: for Log10LC50 / Log10TGI50: CCRF-CEM (Leukemia); for Log10LC50: LC50: PG=−50; for Log10TGI50: TGI: PG=0
MALME-3M = assay: NCI 60 cell line panel screen (SRB); type: cell-based, human; details: for Log10LC50 / Log10TGI50: MALME-3M (Melanoma); for Log10LC50: LC50: PG=−50; for Log10TGI50: TGI: PG=0; for Log10GI50: Melanoma, MALME-3M
MCF7 = assay: NCI 60 cell line panel screen (SRB); type: cell-based, human; details: for Log10GI50: Breast Cancer, MCF7; for Log10LC50 / Log10TGI50: MCF7 (Breast Cancer); for Log10LC50: LC50: PG=−50; for Log10TGI50: TGI: PG=0
TK-10 = assay: NCI 60 cell line panel screen (SRB); type: cell-based, human; details: for Log10GI50: Renal Cancer, TK-10; for Log10LC50 / Log10TGI50: TK-10 (Renal Cancer); for Log10LC50: LC50: PG=−50; for Log10TGI50: TGI: PG=0
U251 = assay: NCI 60 cell line panel screen (SRB); type: cell-based, human; details: for Log10GI50: CNS Cancer, U251; for Log10LC50 / Log10TGI50: U251 (CNS Cancer); for Log10LC50: LC50: PG=−50; for Log10TGI50: TGI: PG=0
OVCAR-5 = assay: NCI 60 cell line panel screen (SRB); type: cell-based, human; details: for Log10LC50 / Log10TGI50: OVCAR-5 (Ovarian Cancer); for Log10LC50: LC50: PG=−50; for Log10TGI50: TGI: PG=0; for Log10GI50: Ovarian Cancer, OVCAR-5
SK-MEL-2 = assay: NCI 60 cell line panel screen (SRB); type: cell-based, human; details: for Log10GI50: Melanoma, SK-MEL-2; for Log10LC50: SK-MEL2 (Melanoma), LC50: PG=−50; for Log10TGI50: SK-MEL-2 (Melanoma), TGI: PG=0
HL-60(TB) = assay: NCI 60 cell line panel screen (SRB); type: cell-based, human; details: for Log10LC50 / Log10TGI50: HL-60(TB) (Leukemia); for Log10LC50: LC50: PG=−50; for Log10TGI50: TGI: PG=0; for Log10GI50: Leukemia, HL-60(TB)

Compound: CC1CCC2C(C)C(CC(CO)CC3OC4OC5(C)CCC6C(C)CCC(C3C)C46OO5)OC3OC4(C)CCC1C32OO4 (stereo not drawn) [Compound 4, bis-trioxane primary alcohol]
- Log10GI50 (SF-268): −5.40
- Log10LC50 (SF-268): −4.23 log10M
- Log10TGI50 (SF-268): −4.63 log10M
- Log10LC50 (M14): −4.14 log10M
- Log10TGI50 (M14): −4.68 log10M
- Log10GI50 (M14): −5.87
- Log10GI50 (MDA-MB-435): −7.50
- Log10LC50 (MDA-MB-435): −4.30 log10M
- Log10TGI50 (MDA-MB-435): −4.78 log10M
- Log10GI50 (HS 578T): −4.82
- Log10LC50 (HS 578T): >−4.00 log10M
- Log10TGI50 (HS 578T): >−4.00 log10M
- Log10LC50 (A549/ATCC): −4.11 log10M
- Log10TGI50 (A549/ATCC): −4.71 log10M
- Log10GI50 (A549/ATCC): −7.29
- Log10GI50 (KM12): <−8.00
- Log10LC50 (KM12): −4.29 log10M
- Log10TGI50 (KM12): −4.79 log10M
- Log10TGI50 (NCI-H522): −4.88 log10M
- Log10LC50 (NCI-H522): −4.40 log10M
- Log10GI50 (NCI-H522): −7.53
- Log10GI50 (UO-31): −7.46
- Log10LC50 (UO-31): −5.14 log10M
- Log10TGI50 (UO-31): −5.77 log10M
- Log10LC50 (COLO 205): −4.50 log10M
- Log10TGI50 (COLO 205): −6.43 log10M
- Log10GI50 (COLO 205): <−8.00
- concentration for cytotoxicity (percentage growth −50) (MOLT-4): greater than 10^−4 M
- Log10GI50 (MOLT-4): −7.92
- Log10LC50 (MOLT-4): >−4.00 log10M
- Log10TGI50 (MOLT-4): >−4.00 log10M
- Log10LC50 (CCRF-CEM): >−4.00 log10M
- Log10TGI50 (CCRF-CEM): −4.66 log10M
- Log10LC50 (MALME-3M): −4.28 log10M
- Log10TGI50 (MALME-3M): −4.74 log10M
- Log10GI50 (MALME-3M): −7.31
- Log10GI50 (MCF7): −7.22
- Log10LC50 (MCF7): −4.03 log10M
- Log10TGI50 (MCF7): −4.67 log10M
- Log10GI50 (TK-10): −6.60
- Log10LC50 (TK-10): −4.38 log10M
- Log10TGI50 (TK-10): −4.81 log10M
- Log10GI50 (U251): −7.27
- Log10LC50 (U251): >−4.00 log10M
- Log10TGI50 (U251): −4.47 log10M
- Log10LC50 (OVCAR-5): −4.54 log10M
- Log10TGI50 (OVCAR-5): −6.42 log10M
- Log10GI50 (OVCAR-5): −7.79
- Log10GI50 (SK-MEL-2): −7.33
- Log10LC50 (SK-MEL-2): −4.46 log10M
- Log10TGI50 (SK-MEL-2): −4.92 log10M
- Log10LC50 (HL-60(TB)): −4.13 log10M
- Log10TGI50 (HL-60(TB)): −4.88 log10M
- Log10GI50 (HL-60(TB)): −7.78

Compound: C[C@@H]1CC[C@H]2[C@@H](C)C(CC(O)(CC3OC4O[C@]5(C)CC[C@H]6[C@H](C)CC[C@@H]([C@H]3C)C46OO5)c3ccc(C(=O)O)cc3)OC3O[C@]4(C)CCC1C32OO4 (stereo partly drawn) [Compound 11b, bis-trioxane tertiary alcohol benzoic acid]
- Log10GI50 (SF-268): −7.72
- Log10LC50 (SF-268): >−4.30 log10M
- Log10TGI50 (SF-268): >−4.30 log10M
- Log10LC50 (M14): >−4.30 log10M
- Log10TGI50 (M14): >−4.30 log10M
- Log10GI50 (M14): −7.81
- Log10GI50 (MDA-MB-435): −8.16
- Log10LC50 (MDA-MB-435): >−4.30 log10M
- Log10TGI50 (MDA-MB-435): >−4.30 log10M
- Log10GI50 (HS 578T): −5.15
- Log10LC50 (HS 578T): >−4.30 log10M
- Log10TGI50 (HS 578T): >−4.31 log10M
- Log10LC50 (A549/ATCC): >−4.30 log10M
- Log10TGI50 (A549/ATCC): >−4.30 log10M
- Log10GI50 (A549/ATCC): −5.69
- Log10GI50 (KM12): <−8.30
- Log10LC50 (KM12): −5.95 log10M
- Log10TGI50 (KM12): <−8.30 log10M
- Log10TGI50 (NCI-H522): >−4.30 log10M
- Log10LC50 (NCI-H522): >−4.30 log10M
- Log10GI50 (NCI-H522): −6.54
- Log10GI50 (UO-31): −6.78
- Log10LC50 (UO-31): >−4.30 log10M
- Log10TGI50 (UO-31): >−4.30 log10M
- Log10LC50 (COLO 205): −5.28 log10M
- Log10TGI50 (COLO 205): −6.99 log10M
- Log10GI50 (COLO 205): <−8.30
- Log10GI50 (MOLT-4): <−8.30
- Log10LC50 (MOLT-4): >−4.30 log10M
- Log10TGI50 (MOLT-4): >−4.30 log10M
- Log10LC50 (CCRF-CEM): >−4.30 log10M
- Log10TGI50 (CCRF-CEM): >−4.30 log10M
- Log10GI50 (CCRF-CEM; Leukemia, CCRF-CEM): −8.07
- Log10LC50 (MALME-3M): >−4.30 log10M
- Log10TGI50 (MALME-3M): −7.46 log10M
- Log10GI50 (MALME-3M): <−8.30
- Log10GI50 (MCF7): <−8.30
- Log10LC50 (MCF7): >−4.30 log10M
- Log10TGI50 (MCF7): >−4.30 log10M
- Log10GI50 (TK-10): −7.81
- Log10LC50 (TK-10): >−4.30 log10M
- Log10TGI50 (TK-10): −5.86 log10M
- Log10GI50 (U251): <−8.30
- Log10LC50 (U251): >−4.30 log10M
- Log10TGI50 (U251): −7.39 log10M
- Log10LC50 (OVCAR-5): >−4.30 log10M
- Log10TGI50 (OVCAR-5): −6.95 log10M
- Log10GI50 (OVCAR-5): <−8.30
- Log10GI50 (SK-MEL-2): −6.43
- Log10LC50 (SK-MEL-2): >−4.30 log10M
- Log10TGI50 (SK-MEL-2): >−4.30 log10M
- Log10LC50 (HL-60(TB)): −4.55 log10M
- Log10TGI50 (HL-60(TB)): −8.11 log10M
- Log10GI50 (HL-60(TB)): <−8.30
